Laboratory results: patent US7741327B2 (Hoffmann-La Roche Inc., priority 2008, dated 2010)

target: T1, Recombinant human liver GK1 (GST-GK) (Homo sapiens, UniProt P35557); test: In vitro glucokinase activity (G6PDH-coupled NADH assay); format: biochemical; details: 30° C., 5 mM D-glucose, 10% DMSO
T1 construct: made in house; host or cells: E. coli
T1 sequence (P35557 1-466 isoform P35557-2): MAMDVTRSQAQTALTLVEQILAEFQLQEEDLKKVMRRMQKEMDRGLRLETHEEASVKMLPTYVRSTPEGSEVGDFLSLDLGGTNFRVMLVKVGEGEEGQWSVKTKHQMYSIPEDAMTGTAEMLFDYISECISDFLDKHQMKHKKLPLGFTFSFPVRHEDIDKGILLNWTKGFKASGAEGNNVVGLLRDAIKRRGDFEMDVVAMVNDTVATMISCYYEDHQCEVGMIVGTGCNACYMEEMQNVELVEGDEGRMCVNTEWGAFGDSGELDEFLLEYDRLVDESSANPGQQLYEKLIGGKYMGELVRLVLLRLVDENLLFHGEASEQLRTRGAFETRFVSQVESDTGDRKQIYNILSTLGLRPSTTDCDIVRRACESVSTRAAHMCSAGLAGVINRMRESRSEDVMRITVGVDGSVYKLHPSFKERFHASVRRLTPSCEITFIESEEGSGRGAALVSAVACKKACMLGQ
Procedure, shortened: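 Activation measured as the rate of OD340 rise from G6PDH-coupled NADH production, relative to 10% DMSO control, reported as SC1.5 (concentration for 50% activity increase). Conditions: 30° C, pH 7.1 Hepes, 5 mM glucose, 1 mM ATP, purified recombinant GST-human GK1, compound preincubated 10 min before enzyme addition.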

In order of falling “SC1.5 (concentration of activator that produced a 50% increase in the activity of GK)” value:
1. CC(C)C[C@@H](C(=O)Nc1ccn(C[C@@H](N)CO)n1)N1CC(Oc2ccccc2Cl)=CC1=O [Example 180, (S)-2-[4-(2-chloro-phenoxy)-2-oxo-2,5-dihydro-pyrrol-1-yl]-4-methyl-pentanoic acid [1-((R)-2-amino-3-hydroxy-propyl)-1H-pyrazol-3-yl]-amide]  6.393 µM
2. O=C(Nc1ccn(C[C@@H](O)CO)n1)[C@@H](CC1CCC1)N1CC(Oc2ccccc2Cl)=CC1=O [Example 177, (R)-2-[4-(2-chloro-phenoxy)-2-oxo-2,5-dihydro-pyrrol-1-yl]-3-cyclobutyl-N-[1-((R)-2,3-dihydroxy-propyl)-1H-pyrazol-3-yl]-propionamide]  4.725 µM
3. COc1ccccc1OC1=CC(=O)N([C@@H](CC2CCCO2)C(=O)Nc2ccn(CC(C)(C)O)n2)C1 (stereo partly drawn) [Example 178, (S)-N-[1-(2-hydroxy-2-methyl-propyl)-1H-pyrazol-3-yl]-2-[4-(2-methoxy-phenoxy)-2-oxo-2,5-dihydro-pyrrol-1-yl]-3-(tetrahydro-furan-2-yl)-propionamide]  2.231 µM
4. CC1(C)OC[C@@H](Cn2ccc(NC(=O)[C@H](Cc3ccccc3Cl)N3CC(Oc4ccccc4Cl)=CC3=O)n2)O1 [Example 188, (S)-2-[4-(2-chloro-phenoxy)-2-oxo-2,5-dihydro-pyrrol-1-yl]-N-[1-((R)-2,2-dimethyl-[1,3]dioxolan-4-yl-methyl)-1H-pyrazol-3-yl]-3-(2-chlorophenyl)-propionamide]  1.629 µM
5. CC1(C)OC[C@@H](Cn2ccc(NC(=O)[C@H](Cc3ccc(F)cc3)N3CC(Oc4ccccc4Cl)=CC3=O)n2)O1 [Example 186, (S)-2-[4-(2-chloro-phenoxy)-2-oxo-2,5-dihydro-pyrrol-1-yl]-N-[1-((R)-2,2-dimethyl-[1,3]dioxolan-4-yl-methyl)-1H-pyrazol-3-yl]-3-(4-fluoro-phenyl)-propionamide]  1.538 µM
6. O=C(Nc1ccn(C[C@@H](O)CO)n1)[C@H](Cc1ccccc1)N1CC(Oc2ccccc2Cl)=CC1=O [Example 181, (S)-2-[4-(2-chloro-phenoxy)-2-oxo-2,5-dihydro-pyrrol-1-yl]-N-[1-((R)-2,3-dihydroxy-propyl)-1H-pyrazol-3-yl]-3-phenyl-propionamide]  1.064 µM
7. O=C(Nc1ccn(C[C@@H](O)CO)n1)[C@H](Cc1ccccc1Cl)N1CC(Oc2ccccc2Cl)=CC1=O [Example 189, (S)-2-[4-(2-chloro-phenoxy)-2-oxo-2,5-dihydro-pyrrol-1-yl]-N-[1-((R)-2,3-dihydroxy-propyl)-1H-pyrazol-3-yl]-3-(2-chlorophenyl)-propionamide]  0.894 µM
8. CC(C)(O)Cn1ccc(NC(=O)[C@H](CC2CCCCC2)N2CC(Oc3ccccc3C(C)(C)C)=CC2=O)n1 [Example 197, (S)-2-[4-(2-t-butyl-phenoxy)-2-oxo-2,5-dihydro-pyrrol-1-yl]-3-cyclohexyl-N-[1-(2-hydroxy-2-methyl-propyl)-1H-pyrazol-3-yl]-propionamide]  0.892 µM
9. O=C(Nc1ccn(C[C@@H](O)CO)n1)[C@H](Cc1ccc(F)cc1)N1CC(Oc2ccccc2Cl)=CC1=O [Example 187, (S)-2-[4-(2-chloro-phenoxy)-2-oxo-2,5-dihydro-pyrrol-1-yl]-N-[1-((R)-2,3-dihydroxy-propyl)-1H-pyrazol-3-yl]-3-(4-fluorophenyl)-propionamide]  0.771 µM
10. CC(C)C[C@@H](C(=O)Nc1ccn(C[C@@H](O)C[C@@H](O)CC(=O)O)n1)N1CC(Oc2ccccc2Cl)=CC1=O [Example 194, (3R,5S)-6-(3-{(S)-2-[4-(2-chloro-phenoxy)-2-oxo-2,5-dihydro-pyrrol-1-yl]-4-methylpentanoylamino}-pyrazol-1-yl)-3,5-dihydroxy-hexanoic acid]  0.695 µM
11. CC(C)Oc1ccccc1OC1=CC(=O)N([C@@H](CC2CCCCC2)C(=O)Nc2ccn(CC(C)(C)O)n2)C1 [Example 195, (S)-3-cyclohexyl-N-[1-(2-hydroxy-2-methyl-propyl)-1H-pyrazol-3-yl]-2-[4-(2-isopropoxy-phenoxy)-2-oxo-2,5-dihydro-pyrrol-1yl]-propionamide]  0.681 µM
12. CC(C)C[C@@H](C(=O)Nc1ncc(Cl)s1)N1CC(Oc2ccccc2Cl)=CC1=O [Example 190, (S)-2-[4-(2-chloro-phenoxy)-2-oxo-2,5-dihydro-pyrrol-1-yl]-4-methyl-pentanoic acid (5-chloro-thiazol-2-yl)-amide]  0.63 µM
13. CC1(C)OC[C@@H](Cn2ccc(NC(=O)[C@H](Cc3c(F)cccc3F)N3CC(Oc4ccccc4Cl)=CC3=O)n2)O1 [Example 184, (S)-2-[4-(2-chloro-phenoxy)-2-oxo-2,5-dihydro-pyrrol-1-yl]-N-[1-((R)-2,2-dimethyl-[1,3]dioxolan-4-yl-methyl)-1H-pyrazol-3-yl]-3-(2,6-difluoro-phenyl)-propionamide]  0.617 µM
14. CC1(C)OC[C@@H](Cn2ccc(NC(=O)[C@H](Cc3ccccc3F)N3CC(Oc4ccccc4Cl)=CC3=O)n2)O1 [Example 182, (S)-2-[4-(2-chloro-phenoxy)-2-oxo-2,5-dihydro-pyrrol-1-yl]-N-[1-((R)-2,2-dimethyl-[1,3]dioxolan-4-yl-methyl)-1H-pyrazol-3-yl]-3-(2-fluoro-phenyl)-propionamide]  0.496 µM
15. CC(C)C[C@@H](C(=O)Nc1ccn(C[C@@H]2C[C@H](CC(=O)OC(C)(C)C)OC(C)(C)O2)n1)N1CC(Oc2ccccc2Cl)=CC1=O [Example 192]  0.412 µM
16. O=C(Nc1ccn(C[C@@H](O)CO)n1)[C@H](Cc1c(F)cccc1F)N1CC(Oc2ccccc2Cl)=CC1=O [Example 185, (S)-2-[4-(2-chloro-phenoxy)-2-oxo-2,5-dihydro-pyrrol-1-yl]-N-[1-((R)-2,3-dihydroxy-propyl)-1H-pyrazol-3-yl]-3-(2,6-difluorophenyl)-propionamide]  0.371 µM
17. O=C(Nc1ccn(C[C@@H](O)CO)n1)[C@H](Cc1ccccc1F)N1CC(Oc2ccccc2Cl)=CC1=O [Example 183, (S)-2-[4-(2-chloro-phenoxy)-2-oxo-2,5-dihydro-pyrrol-1-yl]-N-[1-((R)-2,3-dihydroxy-propyl)-1H-pyrazol-3-yl]-3-(2-fluorophenyl)-propionamide]  0.325 µM
18. CC(C)C[C@@H](C(=O)Nc1ccn(C[C@@H](O)C[C@@H](O)CC(=O)OC(C)(C)C)n1)N1CC(Oc2ccccc2Cl)=CC1=O [Example 193, (3R,5S)-6-(3-{(S)-2-[4-(2-chloro-phenoxy)-2-oxo-2,5-dihydro-pyrrol-1-yl]-4-methyl-pentanoylamino}-pyrazol-1-yl)-3,5-dihydroxy-hexanoic acid t-butyl ester]  0.307 µM
19. COc1ccccc1OC1=CC(=O)N([C@@H](CC2CCCO2)C(=O)Nc2ccn(CC(C)(C)O)n2)C1 (stereo partly drawn) [Example 179, (S)-N-[1-(2-hydroxy-2-methyl-propyl)-1H-pyrazol-3-yl]-2-[4-(2-methoxy-phenoxy)-2-oxo-2,5-dihydro-pyrrol-1-yl]-3-(tetrahydro-furan-2-yl)-propionamide]  0.295 µM
20. COc1cccc(OC2=CC(=O)N([C@@H](CC3CCCCC3)C(=O)Nc3ccn(CC(C)(C)O)n3)C2)c1OC [Example 199, (S)-3-cyclohexyl-2-[4-(2,3-dimethoxy-phenoxy)-2-oxo-2,5-dihydro-pyrrol-1-yl]-N-[1-(2-hydroxy-2-methyl-propyl)-1H-pyrazol-3-yl]-propionamide]  0.07 µM
21. CCCc1ccccc1OC1=CC(=O)N([C@@H](CC2CCCCC2)C(=O)Nc2ccn(CC(C)(C)O)n2)C1 [Example 198, (S)-3-cyclohexyl-N-[1-(2-hydroxy-2-methyl-propyl)-1H-pyrazol-3-yl]-2-[2-oxo-4-(2-propyl-phenoxy)-2,5-dihydro-pyrrol-1-yl]-propionamide]  0.056 µM
22. CSc1ccccc1OC1=CC(=O)N([C@@H](CC2CCCCC2)C(=O)Nc2ccn(CC(C)(C)O)n2)C1 [Example 196, (S)-3-cyclohexyl-N-[1-(2-hydroxy-2-methyl-propyl)-1H-pyrazol-3-yl]-2-[4-(2-methylsulfanyl-phenoxy)-2-oxo-2,5-dihydro-pyrrol-1-yl]-propionamide]  0.007 µM
